In patent US8222279B2, “Small molecule insulin mimetics absent quinones” (Duke University, priority 2006, dated 2012):

Legend:
human insulin receptor = target: T1, human insulin receptor (Homo sapiens, UniProt P06213); test: Insulin receptor autophosphorylation (phosphotyrosines 1162/1163) immunoblot in CHO-IR cells; format: cell-based; conditions: increasing concentrations, 10 min at 37° C., immunoblot not shown
T1 construct: expressed in transfected cells; host or cells: CHO-IR (Chinese hamster ovary cells)
T1 sequence (P06213 763-1382 limits assumed): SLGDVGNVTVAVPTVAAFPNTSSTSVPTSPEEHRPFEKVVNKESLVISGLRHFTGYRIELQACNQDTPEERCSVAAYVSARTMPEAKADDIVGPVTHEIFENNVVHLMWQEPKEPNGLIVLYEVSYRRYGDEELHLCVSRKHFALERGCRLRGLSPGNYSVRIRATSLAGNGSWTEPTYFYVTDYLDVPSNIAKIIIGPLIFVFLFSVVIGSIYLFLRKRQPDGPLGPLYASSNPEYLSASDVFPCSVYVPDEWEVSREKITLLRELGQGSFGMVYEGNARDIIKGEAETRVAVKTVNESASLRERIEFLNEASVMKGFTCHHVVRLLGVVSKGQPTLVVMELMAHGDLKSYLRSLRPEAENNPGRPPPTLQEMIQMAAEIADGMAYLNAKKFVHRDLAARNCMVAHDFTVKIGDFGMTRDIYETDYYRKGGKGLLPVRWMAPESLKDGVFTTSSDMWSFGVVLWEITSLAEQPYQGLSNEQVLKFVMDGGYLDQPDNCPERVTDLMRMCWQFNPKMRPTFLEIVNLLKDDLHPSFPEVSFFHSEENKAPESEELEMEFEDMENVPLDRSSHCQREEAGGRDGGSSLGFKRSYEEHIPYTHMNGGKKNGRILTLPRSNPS
T1 sequence (P06213 28-758 partner limits assumed): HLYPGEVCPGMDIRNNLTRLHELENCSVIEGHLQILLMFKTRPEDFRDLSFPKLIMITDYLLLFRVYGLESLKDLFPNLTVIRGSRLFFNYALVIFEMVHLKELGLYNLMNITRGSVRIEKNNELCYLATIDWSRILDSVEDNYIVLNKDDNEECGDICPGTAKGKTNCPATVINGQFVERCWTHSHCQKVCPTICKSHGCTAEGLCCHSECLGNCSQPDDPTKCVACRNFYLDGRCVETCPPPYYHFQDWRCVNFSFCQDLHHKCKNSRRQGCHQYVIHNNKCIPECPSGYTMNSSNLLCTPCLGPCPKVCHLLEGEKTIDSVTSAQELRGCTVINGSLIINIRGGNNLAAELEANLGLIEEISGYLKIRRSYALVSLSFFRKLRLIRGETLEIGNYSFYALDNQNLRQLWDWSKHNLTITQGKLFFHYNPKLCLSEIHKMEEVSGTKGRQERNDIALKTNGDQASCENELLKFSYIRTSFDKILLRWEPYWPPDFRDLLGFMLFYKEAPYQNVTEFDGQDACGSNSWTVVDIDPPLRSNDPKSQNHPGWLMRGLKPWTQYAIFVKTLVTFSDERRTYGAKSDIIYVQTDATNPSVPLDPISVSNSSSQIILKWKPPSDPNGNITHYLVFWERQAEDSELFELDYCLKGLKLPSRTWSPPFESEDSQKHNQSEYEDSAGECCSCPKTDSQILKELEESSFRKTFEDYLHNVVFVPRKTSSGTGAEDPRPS
Excerpt: These compounds were examined in a cell-based assay for their ability to mimic the action of insulin. In this case, Chinese hamster ovary (CHO) cells stably transfected with a gene for human insulin receptor and expressing it on their surface were used. CHO-IR cells were stimulated with increasing concentrations of insulin, LDIV122 (same as 198), LDIV148 (same as 196), ZL-196 (an insulin mimic that includes a quinone), and LDIV99 (same as 194). Whole-cell lysates were immunoblotted with antibodies to phosphotyrosines 1162 and 1163 that lie on the activation loop in the beta-subunit of the insulin receptor.
Materials. Antibodies to tyrosine phosphorylated IR(Tyr1162/Tyr1163) are from BioSource (Camarillo, Calif.).
CHO-IR cells (Chinese hamster ovary cells overexpressing the β isoform insulin receptor) were cultured in Ham's F12 supplemented with 10% FCS, 2 mM glutamax and gentamicin at 37° C. in a 5% CO2 atmosphere. Cells were serum starved for 72 h in 12-well plates, then stimulated with increasing concentrations of insulin or compounds in KRP-Hepes for 10 min at 37° C. The cells are washed with ice-cold phosphate-buffered saline and solubilized in 2×SDS-sample buffer (50 mM Tris-HCl, pH 7.4, 5% glycerol, 2% SDS, 0.005% bromophenol blue) containing 2 mM sodium orthovanadate and 200 mM sodium fluoride. […]

[1] = tested on: differentiated PC12 neurons; test: Protection of differentiated PC12 neurons from apoptotic cell death induced by NGF withdrawal; format: cell-based; conditions: 100 ng/ml NGF; 48 h; control cells 64±1%
Protocol: A library of asterriquinones was screened using a 96-well ELISA assay that detects phosphorylated TrkA, the NGF receptor. We identified many compounds from this library that activated TrkA in CHO cells. The library was also screened for dose-dependent cytotoxicity in these cells. From these assays, we selected two compounds 1H5 and 5E5 for further study based on NGF agonist activity and low toxicity. […] 1H5 at 30 μM has 49±4% the effect of 100 ng/ml NGF. […] Despite this, 1H5 can protect differentiated PC12 neurons from apoptotic cell death induced by NGF withdrawal for 48 h. Cell death is 64±1% in control PC12 cells, 52±3% in cell treated with 30 μM 1H5, and 18±6% in cells treated with 100 ng/ml NGF. […] 5E5 at 30 μM has 212±11% the effect of 100 ng/ml NGF on CHO-Trk cells. It is non-toxic at concentrations up to 10 μM. […] 5E5 also causes phosphorylation of FRS2/SNT, a differentiation-specific target of NGF in neurons and PC12 cells (2.7-fold v.s. NGF).

| Autophosphorylation of the insulin receptor (human insulin receptor) | Compound | Cell death [1] [%] |
| --- | --- | --- |
| dose-dependent autophosphorylation | CC(C)=CCc1cccc2c(-c3oc(CO)cc(=O)c3O)c[nH]c12 [LDIV99, 3-Hydroxy-6-hydroxymethyl-2-[7-(3-methyl-but-2-enyl)-1H-indol-3-yl]-pyran-4-one] |  |
| dose-dependent autophosphorylation | CC(C)=CCc1cccc2c(-c3c(O)c(=O)cc(CO)n3C)c[nH]c12 [LDIV148, 3-Hydroxy-6-hydroxymethyl-1-methyl-2-[7-(3-methyl-but-2-enyl)-1H-indol-3-yl]-pyridin-4-one] |  |
|  | NGF: nerve growth factor, ligand of TrkA, used as reference at 100 ng/ml | 18±6 |
